Active and inactive are the calls of the source.
How the values were obtained:
[1] = molecular target: T1, Exosome RNA helicase MTR4 (Homo sapiens, UniProt P42285)
T1 sequence (P42285 whole entry): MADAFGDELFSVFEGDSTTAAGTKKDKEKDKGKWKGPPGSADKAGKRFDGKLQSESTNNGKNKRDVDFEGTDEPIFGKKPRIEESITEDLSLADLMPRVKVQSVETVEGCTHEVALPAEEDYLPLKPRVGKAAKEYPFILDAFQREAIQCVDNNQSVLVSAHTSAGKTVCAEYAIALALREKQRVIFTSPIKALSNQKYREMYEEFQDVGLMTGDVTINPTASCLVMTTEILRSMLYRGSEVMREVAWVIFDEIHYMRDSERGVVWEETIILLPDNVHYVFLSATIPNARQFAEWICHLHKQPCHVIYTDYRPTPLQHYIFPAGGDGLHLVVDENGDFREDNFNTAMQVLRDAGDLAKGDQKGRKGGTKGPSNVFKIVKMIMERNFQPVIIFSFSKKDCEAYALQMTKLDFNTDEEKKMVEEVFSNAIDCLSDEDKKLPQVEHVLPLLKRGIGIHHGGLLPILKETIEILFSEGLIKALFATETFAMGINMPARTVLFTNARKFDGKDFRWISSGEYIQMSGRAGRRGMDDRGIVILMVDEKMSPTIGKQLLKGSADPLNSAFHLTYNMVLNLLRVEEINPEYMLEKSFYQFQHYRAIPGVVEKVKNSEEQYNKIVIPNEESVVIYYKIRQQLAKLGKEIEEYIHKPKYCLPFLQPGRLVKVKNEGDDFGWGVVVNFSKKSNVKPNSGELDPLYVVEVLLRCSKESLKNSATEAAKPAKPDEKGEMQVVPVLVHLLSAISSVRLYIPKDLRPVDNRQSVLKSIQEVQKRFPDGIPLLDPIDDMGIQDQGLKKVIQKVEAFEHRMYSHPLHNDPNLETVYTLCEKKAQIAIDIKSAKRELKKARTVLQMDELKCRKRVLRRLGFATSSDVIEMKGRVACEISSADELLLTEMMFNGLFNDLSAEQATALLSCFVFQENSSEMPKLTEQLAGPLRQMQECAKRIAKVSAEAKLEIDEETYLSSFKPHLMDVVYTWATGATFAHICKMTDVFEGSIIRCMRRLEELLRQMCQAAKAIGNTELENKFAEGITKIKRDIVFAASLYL

[2] = molecular target: cAMP-dependent protein kinase catalytic subunit alpha (Homo sapiens, UniProt P17612)
[3] = molecular target: T2, Acyl-CoA dehydrogenase family member 10 (Homo sapiens, UniProt Q6JQN1)
T2 sequence (Q6JQN1 whole entry): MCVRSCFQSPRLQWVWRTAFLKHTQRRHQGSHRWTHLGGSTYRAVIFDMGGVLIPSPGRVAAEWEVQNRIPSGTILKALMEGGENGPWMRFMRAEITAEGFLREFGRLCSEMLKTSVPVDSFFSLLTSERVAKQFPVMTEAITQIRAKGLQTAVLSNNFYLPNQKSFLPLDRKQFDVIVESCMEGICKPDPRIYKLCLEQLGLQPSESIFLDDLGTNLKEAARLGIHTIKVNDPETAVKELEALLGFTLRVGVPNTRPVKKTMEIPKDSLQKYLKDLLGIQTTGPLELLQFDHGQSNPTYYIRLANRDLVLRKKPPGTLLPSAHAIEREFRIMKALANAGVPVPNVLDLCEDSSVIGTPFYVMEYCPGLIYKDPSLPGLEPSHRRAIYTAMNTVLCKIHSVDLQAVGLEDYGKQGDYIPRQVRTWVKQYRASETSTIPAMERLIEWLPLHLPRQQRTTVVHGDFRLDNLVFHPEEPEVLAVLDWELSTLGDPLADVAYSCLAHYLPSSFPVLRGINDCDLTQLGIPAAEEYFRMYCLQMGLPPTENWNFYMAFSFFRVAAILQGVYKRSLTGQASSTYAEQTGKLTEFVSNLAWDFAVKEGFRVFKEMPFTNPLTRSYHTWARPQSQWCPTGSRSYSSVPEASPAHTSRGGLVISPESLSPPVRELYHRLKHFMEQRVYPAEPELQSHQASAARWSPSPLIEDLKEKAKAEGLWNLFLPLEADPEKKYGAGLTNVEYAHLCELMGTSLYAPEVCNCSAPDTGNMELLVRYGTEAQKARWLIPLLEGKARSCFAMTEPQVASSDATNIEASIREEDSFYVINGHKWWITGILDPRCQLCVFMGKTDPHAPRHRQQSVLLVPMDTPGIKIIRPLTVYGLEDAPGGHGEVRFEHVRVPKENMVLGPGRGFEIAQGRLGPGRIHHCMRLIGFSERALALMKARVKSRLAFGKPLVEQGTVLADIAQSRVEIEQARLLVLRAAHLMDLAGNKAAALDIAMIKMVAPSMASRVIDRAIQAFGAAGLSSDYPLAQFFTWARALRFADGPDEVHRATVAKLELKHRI

[4] = molecular target: Ephrin type-A receptor 2 (Homo sapiens, UniProt P29317)
[5] = molecular target: Activin receptor type-2B (Homo sapiens, UniProt Q13705)
[6] = molecular target: T3, Ras-related protein Rab-10 (Homo sapiens, UniProt P61026)
T3 sequence (P61026 whole entry): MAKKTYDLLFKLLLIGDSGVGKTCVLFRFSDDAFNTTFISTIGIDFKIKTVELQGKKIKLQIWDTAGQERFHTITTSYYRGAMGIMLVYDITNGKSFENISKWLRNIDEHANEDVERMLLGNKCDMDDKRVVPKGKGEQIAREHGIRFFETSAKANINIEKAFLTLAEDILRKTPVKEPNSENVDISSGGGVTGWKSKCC
Further: in the data inactive means no Kd found up to 30 µM.

Sequence of Ephrin type-A receptor 2 (P29317 whole entry): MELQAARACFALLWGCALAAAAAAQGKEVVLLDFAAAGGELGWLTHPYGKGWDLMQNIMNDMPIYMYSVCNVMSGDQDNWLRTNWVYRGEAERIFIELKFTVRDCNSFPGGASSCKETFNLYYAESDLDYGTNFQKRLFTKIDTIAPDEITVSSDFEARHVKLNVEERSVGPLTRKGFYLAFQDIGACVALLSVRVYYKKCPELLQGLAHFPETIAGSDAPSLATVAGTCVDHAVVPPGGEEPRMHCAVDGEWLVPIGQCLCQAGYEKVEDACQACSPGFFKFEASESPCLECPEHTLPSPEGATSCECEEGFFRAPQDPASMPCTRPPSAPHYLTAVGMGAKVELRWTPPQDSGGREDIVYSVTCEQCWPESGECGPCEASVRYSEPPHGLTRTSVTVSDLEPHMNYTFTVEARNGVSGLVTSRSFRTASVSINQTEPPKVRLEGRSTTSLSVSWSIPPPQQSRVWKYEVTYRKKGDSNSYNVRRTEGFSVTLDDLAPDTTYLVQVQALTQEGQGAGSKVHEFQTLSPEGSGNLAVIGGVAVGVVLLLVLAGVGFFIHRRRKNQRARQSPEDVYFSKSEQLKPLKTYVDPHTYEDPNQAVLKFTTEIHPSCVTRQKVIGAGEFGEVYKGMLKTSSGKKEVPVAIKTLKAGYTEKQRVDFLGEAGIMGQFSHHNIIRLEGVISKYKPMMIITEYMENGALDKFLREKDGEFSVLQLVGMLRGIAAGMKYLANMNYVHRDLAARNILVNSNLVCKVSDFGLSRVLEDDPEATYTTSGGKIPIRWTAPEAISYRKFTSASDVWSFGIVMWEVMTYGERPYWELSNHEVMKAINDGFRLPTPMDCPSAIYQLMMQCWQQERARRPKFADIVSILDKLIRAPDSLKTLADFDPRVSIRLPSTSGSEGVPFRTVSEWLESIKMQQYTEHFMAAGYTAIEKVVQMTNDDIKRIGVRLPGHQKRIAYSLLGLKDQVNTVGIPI
Sequence of Activin receptor type-2B (Q13705 whole entry): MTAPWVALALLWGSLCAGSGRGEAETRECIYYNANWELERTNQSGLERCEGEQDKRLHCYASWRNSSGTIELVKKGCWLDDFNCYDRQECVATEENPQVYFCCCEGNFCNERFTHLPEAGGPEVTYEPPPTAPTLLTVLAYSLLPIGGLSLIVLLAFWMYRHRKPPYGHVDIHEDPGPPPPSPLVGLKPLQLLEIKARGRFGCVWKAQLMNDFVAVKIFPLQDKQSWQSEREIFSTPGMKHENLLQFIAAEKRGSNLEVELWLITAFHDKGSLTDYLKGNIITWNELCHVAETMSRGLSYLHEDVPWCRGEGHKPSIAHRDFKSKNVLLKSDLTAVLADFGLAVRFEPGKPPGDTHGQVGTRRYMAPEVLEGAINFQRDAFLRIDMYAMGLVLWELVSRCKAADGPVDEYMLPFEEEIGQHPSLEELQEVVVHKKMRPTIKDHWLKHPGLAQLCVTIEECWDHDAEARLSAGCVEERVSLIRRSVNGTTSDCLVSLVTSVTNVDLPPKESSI

SMILES | Kd [1] | Kd [2] | Kd [3] | Kd [4] | Kd [5] | Kd [6]
CN1CCN(c2nc(C3=C(c4c[nH]c5ccccc45)C(=O)NC3=O)c3ccccc3n2)CC1 [SOTRASTAURIN] | > 30 µM (inactive) | > 30 µM (inactive) | > 30 µM (inactive) | > 30 µM (inactive) | > 30 µM (inactive) | > 30 µM (inactive)
CC(C)CC(=O)Nc1[nH]nc2c1CN(C(=O)C1CCN(C)CC1)C2(C)C [PHA-793887] | > 30 µM (inactive) | > 30 µM (inactive) | > 30 µM (inactive) | > 30 µM (inactive) | > 30 µM (inactive) | > 30 µM (inactive)
CC1(COc2ccc3c(c2)ncn3-c2ccc3cccc(N4CCC(N)CC4)c3n2)COC1 [CRENOLANIB] | > 30 µM (inactive) | > 30 µM (inactive) | > 30 µM (inactive) | > 30 µM (inactive) | > 30 µM (inactive) | > 30 µM (inactive)
O[C@H]1CC[C@H](Nc2ncc3nc(Nc4c(F)cc(F)cc4F)n([C@H]4CCOC4)c3n2)CC1 [TANZISERTIB] | > 30 µM (inactive) | > 30 µM (inactive) | > 30 µM (inactive) | > 30 µM (inactive) | > 30 µM (inactive) | > 30 µM (inactive)
C=CCn1c(=O)c2cnc(Nc3ccc(N4CCN(C)CC4)cc3)nc2n1-c1cccc(C(C)(C)O)n1 [ADAVOSERTIB] | > 30 µM (inactive) | > 30 µM (inactive) | > 30 µM (inactive) | > 30 µM (inactive) | > 30 µM (inactive) | > 30 µM (inactive)
CNC(=O)c1ccc(Nc2ncc(C(F)(F)F)c(NCc3nccnc3N(C)S(C)(=O)=O)n2)cc1 [DEFACTINIB] | > 30 µM (inactive) | > 30 µM (inactive) | > 30 µM (inactive) | > 30 µM (inactive) | > 30 µM (inactive) | > 30 µM (inactive)
CCc1nc(C(N)=O)c(Nc2ccc(N3CCC(N4CCN(C)CC4)CC3)c(OC)c2)nc1NC1CCOCC1 [GILTERITINIB] | > 30 µM (inactive) | > 30 µM (inactive) | > 30 µM (inactive) | > 30 µM (inactive) | > 30 µM (inactive) | > 30 µM (inactive)
Cc1cc(-c2cc(OC(=O)c3ccccc3)ccc2Cl)cc2nnc(Nc3ccc(OCCN4CCCC4)cc3)nc12 [TG100-801] | > 30 µM (inactive) | > 30 µM (inactive) | > 30 µM (inactive) | 1.19 µM (active) | 0.419 µM | > 30 µM (inactive)
FC(F)(F)c1ccc(CNc2ccc(Cc3c[nH]c4ncc(Cl)cc34)cn2)cn1 [PEXIDARTINIB] | > 30 µM (inactive) | > 30 µM (inactive) | > 30 µM (inactive) | > 30 µM (inactive) | > 30 µM (inactive) | > 30 µM (inactive)
O=c1[nH]c([C@@H]2CCCN2)nc2c1oc1ccc(Cl)cc12 | > 30 µM (inactive) | > 30 µM (inactive) | > 30 µM (inactive) | > 30 µM (inactive) | > 30 µM (inactive) | > 30 µM (inactive)
C=CC(=O)Nc1cccc(Nc2nc(Nc3ccc(N4CCN(C(C)=O)CC4)cc3OC)ncc2C(F)(F)F)c1 [ROCILETINIB] | > 30 µM (inactive) | > 30 µM (inactive) | > 30 µM (inactive) | > 30 µM (inactive) | > 30 µM (inactive) | > 30 µM (inactive)
COCCN1CCN(Cc2ccc(-c3n[nH]c4c3C(=O)c3c(NC(=O)NN5CCOCC5)cccc3-4)cc2)CC1 [RGB-286638] | > 30 µM (inactive) | > 30 µM (inactive) | > 30 µM (inactive) | > 30 µM (inactive) | > 30 µM (inactive) | > 30 µM (inactive)
CC[C@@](C)(Nc1ccnc(-c2c[nH]c3ncccc23)n1)C(=O)NCC(F)(F)F [DECERNOTINIB] | > 30 µM (inactive) | > 30 µM (inactive) | > 30 µM (inactive) | > 30 µM (inactive) | > 30 µM (inactive) | > 30 µM (inactive)
CCc1cc2c(cc1N1CCC(N3CCOCC3)CC1)C(C)(C)c1[nH]c3cc(C#N)ccc3c1C2=O [ALECTINIB] | > 30 µM (inactive) | > 30 µM (inactive) | > 30 µM (inactive) | > 30 µM (inactive) | > 30 µM (inactive) | > 30 µM (inactive)
COc1cc(Nc2ncc(F)c(Nc3ccc4c(n3)N(COP(=O)(O)O)C(=O)C(C)(C)O4)n2)cc(OC)c1OC [FOSTAMATINIB] | > 30 µM (inactive) | > 30 µM (inactive) | > 30 µM (inactive) | > 30 µM (inactive) | > 30 µM (inactive) | > 30 µM (inactive)
Cc1ccc(C(=O)Nc2ccc(Oc3cc4cnn(C)c4cc3-c3cn[nH]c3)c(F)c2)c(=O)n1-c1ccc(F)cc1 [MERESTINIB] | > 30 µM (inactive) | > 30 µM (inactive) | > 30 µM (inactive) | > 30 µM (inactive) | > 30 µM (inactive) | > 30 µM (inactive)
c1cc(OCCN2CCCCC2)cc(-c2n[nH]c3ccc(-c4nc[nH]n4)cc23)c1 [CC-401] | > 30 µM (inactive) | > 30 µM (inactive) | > 30 µM (inactive) | > 30 µM (inactive) | > 30 µM (inactive) | > 30 µM (inactive)
O=C(NOC[C@H](O)CO)c1ccc(F)c(F)c1Nc1ccc(I)cc1F [MIRDAMETINIB] | > 30 µM (inactive) | > 30 µM (inactive) | > 30 µM (inactive) | > 30 µM (inactive) | > 30 µM (inactive) | > 30 µM (inactive)

More lines, now with the values ahead:

Kd [1] | Kd [2] | Kd [3] | Kd [4] | Kd [5] | Kd [6] | SMILES
> 30 µM (inactive) | 0.916 µM (active) | > 30 µM (inactive) | > 30 µM (inactive) | > 30 µM (inactive) | > 30 µM (inactive) | COc1cccc(Nc2ncnn3ccc(CN4CC[C@@H](N)[C@H](O)C4)c23)c1 [BMS-690514]
> 30 µM (inactive) | > 30 µM (inactive) | > 30 µM (inactive) | > 30 µM (inactive) | > 30 µM (inactive) | > 30 µM (inactive) | Cc1cc(C(=O)Nc2cc(Oc3ccc4nc(NC(=O)C5CC5)cn4n3)ccc2C)n(C)n1 [TAK-593]
> 30 µM (inactive) | > 30 µM (inactive) | > 30 µM (inactive) | > 30 µM (inactive) | > 30 µM (inactive) | > 30 µM (inactive) | Cn1c(=O)c(F)c(Nc2ccc(I)cc2F)c2c(=O)n(C[C@@H](O)CO)cnc21 [TAK-733]
> 30 µM (inactive) | > 30 µM (inactive) | > 30 µM (inactive) | > 30 µM (inactive) | > 30 µM (inactive) | > 30 µM (inactive) | COc1cccc2cc(-c3nc([C@H]4CC[C@H](C(=O)O)CC4)n4ncnc(N)c34)[nH]c12 [OSI-027]

— ChEMBL document CHEMBL3991601, “The target landscape of clinical kinase drugs” (Science, 2017)
